From patent US12492188B2, “1H-benzo[D]imidazole derivatives as TLR9 inhibitors for the treatment of fibrosis” (BRISTOL-MYERS SQUIBB COMPANY, priority 2020, dated 2025) come the findings set out here.

Type in all cases: cell-based
Assay [1] addresses T1, human TLR8 (Homo sapiens, UniProt Q9NR97).
T1 construct: host or cells: HEK-Blue cells (HEK293-derived reporter line)
T1 sequence (Q9NR97 27-1041): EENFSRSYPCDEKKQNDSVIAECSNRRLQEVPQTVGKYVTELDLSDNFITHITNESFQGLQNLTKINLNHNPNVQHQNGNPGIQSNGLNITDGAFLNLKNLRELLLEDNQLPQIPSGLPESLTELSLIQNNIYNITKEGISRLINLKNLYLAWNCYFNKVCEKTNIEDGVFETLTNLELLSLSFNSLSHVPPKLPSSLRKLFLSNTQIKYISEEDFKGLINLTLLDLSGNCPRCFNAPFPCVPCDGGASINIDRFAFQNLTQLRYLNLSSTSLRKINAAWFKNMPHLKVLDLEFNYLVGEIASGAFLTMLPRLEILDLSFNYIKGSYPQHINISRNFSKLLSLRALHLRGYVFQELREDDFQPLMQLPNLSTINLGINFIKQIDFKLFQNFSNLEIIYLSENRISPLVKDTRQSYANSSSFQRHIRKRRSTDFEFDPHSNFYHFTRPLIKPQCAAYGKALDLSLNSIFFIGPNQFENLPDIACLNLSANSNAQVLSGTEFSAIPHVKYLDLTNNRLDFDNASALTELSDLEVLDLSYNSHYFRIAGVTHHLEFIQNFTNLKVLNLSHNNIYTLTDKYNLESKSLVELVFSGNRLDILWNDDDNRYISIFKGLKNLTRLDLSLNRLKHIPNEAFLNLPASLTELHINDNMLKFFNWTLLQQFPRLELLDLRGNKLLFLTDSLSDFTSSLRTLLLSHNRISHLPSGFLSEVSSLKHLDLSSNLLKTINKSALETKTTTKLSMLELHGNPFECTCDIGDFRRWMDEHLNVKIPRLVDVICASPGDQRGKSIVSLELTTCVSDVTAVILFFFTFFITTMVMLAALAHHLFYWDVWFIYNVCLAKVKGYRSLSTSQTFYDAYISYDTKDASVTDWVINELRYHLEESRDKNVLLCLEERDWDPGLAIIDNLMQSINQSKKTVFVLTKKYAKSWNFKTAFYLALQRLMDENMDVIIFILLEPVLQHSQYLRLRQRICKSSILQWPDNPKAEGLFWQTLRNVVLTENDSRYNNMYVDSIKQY
As to the kind of experiment: TLR8 inhibition reporter assay (HEK-Blue cells, secreted embryonic alkaline phosphatase reporter). As to conditions: HEK-Blue cells overexpressing human TLR8, stimulated with R848 15.9 μM; read-out: TLR 8 IC50. Summed up: (§1)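 Inhibitors are tested in dose response (0.05 nM–50 μM) on HEK-Blue reporter cells expressing human TLR7, TLR8 or TLR9. After 30 min at room temperature, each line is stimulated with its own agonist (gardiquimod 7.5 μM, R848 15.9 μM or ODN2006 5 nM, final) and SEAP is measured 22 h later.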
On the technique in general: Reporter assays use an easily measured gene product as a stand-in for the process of interest.

Assay [2] addresses T2, human TLR7 (Homo sapiens, UniProt Q9NYK1).
T2 construct: host or cells: HEK-Blue cells (HEK293-derived reporter line)
T2 sequence (Q9NYK1 27-1049): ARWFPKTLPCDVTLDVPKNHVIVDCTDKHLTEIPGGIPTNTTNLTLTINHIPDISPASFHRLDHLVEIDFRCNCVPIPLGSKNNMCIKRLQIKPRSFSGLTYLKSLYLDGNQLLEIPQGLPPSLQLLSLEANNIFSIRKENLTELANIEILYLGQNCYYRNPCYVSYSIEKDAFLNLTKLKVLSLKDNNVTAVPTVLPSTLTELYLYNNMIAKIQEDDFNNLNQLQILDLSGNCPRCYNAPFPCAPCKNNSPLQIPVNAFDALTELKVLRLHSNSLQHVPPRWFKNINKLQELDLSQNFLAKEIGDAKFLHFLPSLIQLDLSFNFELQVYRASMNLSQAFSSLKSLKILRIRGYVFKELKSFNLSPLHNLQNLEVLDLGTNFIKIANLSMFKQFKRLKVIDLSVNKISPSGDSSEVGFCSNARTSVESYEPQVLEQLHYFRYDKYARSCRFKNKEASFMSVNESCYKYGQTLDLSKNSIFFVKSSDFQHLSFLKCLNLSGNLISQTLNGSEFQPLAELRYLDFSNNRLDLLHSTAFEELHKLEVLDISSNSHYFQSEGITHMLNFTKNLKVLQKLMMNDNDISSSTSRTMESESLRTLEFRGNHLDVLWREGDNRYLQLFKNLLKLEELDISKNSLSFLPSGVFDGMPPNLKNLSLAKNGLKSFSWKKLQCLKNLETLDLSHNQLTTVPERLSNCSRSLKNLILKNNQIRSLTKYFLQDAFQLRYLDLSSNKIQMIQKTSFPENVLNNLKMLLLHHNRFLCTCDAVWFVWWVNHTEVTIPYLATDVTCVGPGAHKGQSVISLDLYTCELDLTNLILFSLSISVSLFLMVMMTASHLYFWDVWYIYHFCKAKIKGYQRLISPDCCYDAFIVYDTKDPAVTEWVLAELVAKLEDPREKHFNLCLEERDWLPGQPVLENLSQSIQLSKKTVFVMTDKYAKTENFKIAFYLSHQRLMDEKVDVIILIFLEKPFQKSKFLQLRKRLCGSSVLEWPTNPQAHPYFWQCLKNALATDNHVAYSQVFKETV
As to the kind of experiment: TLR7 inhibition reporter assay (HEK-Blue cells, secreted embryonic alkaline phosphatase reporter). As to conditions: HEK-Blue cells overexpressing human TLR7, stimulated with gardiquimod 7.5 μM; read-out: TLR 7 IC50. In short, it runs like this: as §1

Assay [3] deals with T3, human TLR9 (Homo sapiens, UniProt Q9NR96).
T3 construct: host or cells: HEK-Blue cells (HEK293-derived reporter line)
T3 sequence (Q9NR96 26-1032): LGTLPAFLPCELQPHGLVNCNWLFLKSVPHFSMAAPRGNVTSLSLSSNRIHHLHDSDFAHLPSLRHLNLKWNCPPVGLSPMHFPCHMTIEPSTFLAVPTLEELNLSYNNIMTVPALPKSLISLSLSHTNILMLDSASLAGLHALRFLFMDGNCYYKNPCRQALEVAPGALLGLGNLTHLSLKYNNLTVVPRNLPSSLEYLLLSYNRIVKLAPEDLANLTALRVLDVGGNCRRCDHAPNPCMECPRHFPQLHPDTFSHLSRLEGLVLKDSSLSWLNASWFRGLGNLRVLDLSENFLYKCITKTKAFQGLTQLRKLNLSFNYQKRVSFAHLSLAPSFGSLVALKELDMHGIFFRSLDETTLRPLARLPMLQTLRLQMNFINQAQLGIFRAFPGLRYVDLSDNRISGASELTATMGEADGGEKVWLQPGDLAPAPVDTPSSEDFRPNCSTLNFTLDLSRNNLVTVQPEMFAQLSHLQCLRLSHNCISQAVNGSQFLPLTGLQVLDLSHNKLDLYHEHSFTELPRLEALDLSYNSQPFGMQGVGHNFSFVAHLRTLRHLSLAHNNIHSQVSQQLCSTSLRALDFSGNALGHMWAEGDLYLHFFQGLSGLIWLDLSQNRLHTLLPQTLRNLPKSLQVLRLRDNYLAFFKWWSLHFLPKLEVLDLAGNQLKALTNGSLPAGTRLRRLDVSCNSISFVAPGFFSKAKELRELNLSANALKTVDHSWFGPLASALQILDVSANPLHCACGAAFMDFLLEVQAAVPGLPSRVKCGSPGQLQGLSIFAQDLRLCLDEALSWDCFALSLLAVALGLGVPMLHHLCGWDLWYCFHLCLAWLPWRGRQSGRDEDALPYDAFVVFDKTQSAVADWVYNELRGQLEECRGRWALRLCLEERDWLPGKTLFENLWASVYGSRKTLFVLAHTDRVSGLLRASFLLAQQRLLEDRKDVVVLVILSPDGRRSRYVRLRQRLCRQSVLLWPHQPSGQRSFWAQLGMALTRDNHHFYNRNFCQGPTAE
As to the kind of experiment: TLR9 inhibition reporter assay (HEK-Blue cells, secreted embryonic alkaline phosphatase reporter). In short, it runs like this:
as §1

The mark [4] stands for this setting: HEK-Blue cells overexpressing human TLR9, stimulated with ODN2006 5 nM, read-out: TLR 9 IC50.
The mark [5] stands for this setting: HEK-Blue cells overexpressing human TLR9, stimulated with ODN2006 5 nM, 22 hour incubation, reporter readout.

Structures are written as SMILES. Where two headings read alike, the source gives them in different places.

As to `Cn1c(-c2ccc(S(C)(=O)=O)cc2)nc2ccc(C3CCN(C4CC5CCC(C4)N5CC4CC4)CC3)c(F)c21` (centres unmarked) [Example 268, 6-(1-(8-(cyclopropylmethyl)-8-azabicyclo[3.2.1]octan-3-yl)piperidin-4-yl)-7-fluoro-1-methyl-2-(4-(methylsulfonyl)phenyl)-1H-benzo[d]imidazole], the IC50 (in general, the concentration that gives 50% inhibition) in assay [1] is greater than 50000 nM; in assay [2], 27600 nM; in assay [3], 60 nM; in assay [3] (setting [4]) it was 60 nM.
`CC(C)CN1C2CCC1CC(N1CCC(c3ccc4nc(-c5ccc(S(C)(=O)=O)cc5)[nH]c4c3F)CC1)C2` (single isomer, unassigned) [Example 219, 7-fluoro-6-(1-(8-isobutyl-8-azabicyclo[3.2.1]octan-3-yl)piperidin-4-yl)-2-(4-(methylsulfonyl)phenyl)-1H-benzo[d]imidazole]: the IC50 is greater than 50000 nM in assay [1], 18500 nM in assay [2], 65 nM in assay [3] and 65 nM in assay [3] (setting [4]).
In the case of `CC(C)N1C2CCC1CC(N1CCC(c3cc(F)c4nc(-c5ccc(S(C)(=O)=O)cc5)n(C5CC5)c4c3)CC1)C2` (single isomer, unassigned) [Example 116, 1-cyclopropyl-4-fluoro-6-(1-(8-isopropyl-8-azabicyclo[3.2.1]octan-3-yl)piperidin-4-yl)-2-(4-(methylsulfonyl)phenyl)-1H-benzo[d]imidazole], the IC50 in assay [1] was greater than 50000 nM; in assay [2] it was 3500 nM; in assay [3] (setting [5]) it was 51 nM.
Regarding `Cc1cc(C2CCN(C3CC4CCC(C3)N4C(C)C)CC2)cc2c1nc(-c1ccc(S(C)(=O)=O)cc1)n2C` (single isomer, unassigned) [Example 85, 6-(1-(8-isopropyl-8-azabicyclo[3.2.1]octan-3-yl)piperidin-4-yl)-1,4-dimethyl-2-(4-(methylsulfonyl)phenyl)-1H-benzo[d]imidazole], the IC50 is greater than 25000 nM in assay [1], 5700 nM in assay [2], 110 nM in assay [3] (setting [5]) and 106 nM in assay [3] (setting [4]).
For the compound `CS(=O)(=O)c1ccc(-c2nc3c(F)cc(C4CCN(C5CCN(C6CCOCC6)CC5)CC4)cc3n2C2CC2)cc1` [Example 321, 1-cyclopropyl-4-fluoro-2-(4-(methylsulfonyl)phenyl)-6-(1′-(tetrahydro-2H-pyran-4-yl)-[1,4′-bipiperidin]-4-yl)-1H-benzo[d]imidazole], the IC50 in assay [1] was greater than 50000 nM; in assay [2], 1900 nM; in assay [3] (setting [4]), 36 nM; in assay [3] (HEK-Blue human TLR9 reporter cells), 36 nM.
Regarding `Cn1c(-c2ccc(S(C)(=O)=O)cc2)nc2c(F)cc(C3CCN(C4CCN(C5COC5)CC4)CC3)cc21` [Example 279, 4-fluoro-1-methyl-2-(4-(methylsulfonyl)phenyl)-6-(1′-(oxetan-3-yl)-[1,4′-bipiperidin]-4-yl)-1H-benzo[d]imidazole], the IC50 in assay [1] was greater than 50000 nM; in assay [2], 19500 nM; in assay [3] it was 1200 nM; in assay [3] (setting [4]), 1220 nM.
The matching figures for `Cc1cc(C2CCN(C3CC4CCC(C3)N4C3COC3)CC2)cc2c1nc(-c1ccc(S(C)(=O)=O)cc1)n2C` (single isomer, unassigned) [Example 159, 1,4-dimethyl-2-(4-(methylsulfonyl)phenyl)-6-(1-(8-(oxetan-3-yl)-8-azabicyclo[3.2.1]octan-3-yl)piperidin-4-yl)-1H-benzo[d]imidazole]: greater than 25000 nM, greater than 25000 nM, 930 nM and 934 nM.
Consider `Cc1cc(-c2ccc(C3CCN(C4CCN(C5CC5)CC4)CC3)cc2)cc2c1nc(-c1ccc(S(C)(=O)=O)cc1)n2C` [Example 401, 6-(4-(1′-cyclopropyl-[1,4′-bipiperidin]-4-yl)phenyl)-1,4-dimethyl-2-(4-(methylsulfonyl)phenyl)-1H-benzo[d]imidazole], for which the IC50 in assay [1] worked out at 1200 nM; in assay [2], 2700 nM; in assay [3] (setting [5]) it was 100 nM; in assay [3] (setting [4]), 104 nM.
For `Cn1c(-c2ccc(S(C)(=O)=O)cc2)nc2cc(F)c(C3CCN(C4CCN(C5COC5)CC4)CC3)cc21` [Example 225, 5-fluoro-1-methyl-2-(4-(methylsulfonyl)phenyl)-6-(1′-(oxetan-3-yl)-[1,4′-bipiperidin]-4-yl)-1H-benzo[d]imidazole], the IC50 in assay [1] is greater than 50000 nM; in assay [2], greater than 50000 nM; in assay [3] it was 5400 nM; in assay [3] (setting [4]) it was 5350 nM.
